We go through 118 compounds from the SangsterLogP compilation.

What is called logP is a log measure of how a compound divides between an organic and an aqueous phase. A lower logP goes with lower lipophilicity.

With `CS(=O)(=O)c1ccc(C(=O)C2C(=O)CCCC2=O)c(Cl)c1`, the logP worked out at 1.2.

`CCOCn1c(-c2ccc(Cl)cc2)c(C#N)c(Br)c1C(F)(F)F` gave a logP of 5.24.

Regarding `COc1cc(OC)nc(NC(=O)NS(=O)(=O)c2ncccc2OCC(F)(F)F)n1`, the logP amounted to 1.85. The same measure for `Fc1ccc([C@@]2(Cn3cncn3)O[C@@H]2c2ccccc2Cl)cc1`: 3.3; for `O=C1CC(C(=O)O)CC(=O)C1=C(O)C1CC1` (stereo not drawn): 1.42; for `COC(=O)c1ccc(Cl)cc1`: 2.81. The same measure for `CS(=O)(=O)c1ccc(C(=O)C2C(=O)CCCC2=O)c([N+](=O)[O-])c1`: 0.9; for `CC1=CC(=O)CC(C)(C)[C@@]1(O)/C=C/C(C)=C\C(=O)O`: 1.71.

In turn, `COC(=O)C(C)N(C(=O)c1ccco1)c1c(C)cccc1C` (stereo not drawn) displayed a logP of 2.59. In turn, `CCOC(=O)c1cccnc1` displayed a logP of 1.38. The same measure for `Oc1cccc2cccnc12`: 1.93; for `N#CN=C1SCCN1Cc1ccc(Cl)nc1`: 1.26.

`CC(=O)Nc1cccnc1`: the logP was determined as 0.38. For `O=[N+]([O-])c1ccccc1` the value was 1.79; for `CCCC(=O)c1ccccc1`, 2.68; for `CO/N=C(/C1=NOCCO1)c1ccccc1Oc1ncnc(Oc2ccccc2Cl)c1F`, 2.95. The same measure for `CC(=O)Nc1ccccn1`: 0.56. The compound `CC(C1CC1)C(O)(Cn1cncn1)c1ccc(Cl)cc1` (stereo not drawn) displayed a lipophilicity (logP) of 2.99.

In turn, `CC(=NC#N)N(C)Cc1ccc(Cl)nc1` returned a lipophilicity (logP) of 0.82. The same measure for `Cc1[nH]n(C)c(=O)c1C(=O)c1ccc(C(F)(F)F)cc1S(C)(=O)=O`: 0.63.

In turn, `O=[N+]([O-])c1c(Cl)c(Cl)cc(Cl)c1Cl` yielded a logP of 4.28. Compound `c1ccc2c(c1)Nc1ccccc1S2` returned a logP of 4.08. The same measure for `CCCCC(C#N)(Cn1cncn1)c1ccc(Cl)cc1` (stereo not drawn): 3.06; for `CCCCC(O)(Cn1cncn1)c1ccc(Cl)cc1Cl` (stereo not drawn): 3.8. Regarding `COC(=O)Cc1ccccc1`, the logP was 1.75. For `CCCOC(=O)C(C)Oc1ccc(Oc2ccc(C(F)(F)F)cn2)cc1` (stereo not drawn) the value was 4.44. As for `c1ccc(-c2ccccc2)cc1`, the logP was found to be 3.96. For `C[C@@H](Oc1ccc(Oc2ccc(C(F)(F)F)cn2)cc1)C(=O)O` the value was 3.21. The same measure for `COC(=O)c1ccccc1CS(=O)(=O)NC(=O)Nc1nc(OC)cc(OC)n1`: 2.36; for `Cc1cc(C)nc(NC(=O)NS(=O)(=O)c2ccccc2C(=O)OC2COC2)n1`: 1.07.

Compound `CC(C)(C)N(NC(=O)c1ccccc1)C(=O)c1ccccc1` registered a logP of 2.43. The same measure for `c1ccc2[nH]cnc2c1`: 1.29. The same measure for `O=Cc1cccc(Oc2ccccc2)c1`: 3.32; for `COC(=O)c1ccccc1C(=O)OC`: 1.49. The same measure for `Cc1cc(Cl)ccc1OCC(=O)O`: 2.79.

On to `CNC(=O)Oc1cccc2c1OC(C)(C)C2`, for which the logP worked out at 1.59. The same measure for `CCOC(=O)C(C)Oc1ccc(Oc2ccc(C(F)(F)F)cn2)cc1` (stereo not drawn): 3.9; for `c1ccc(Oc2ccccn2)cc1`: 2.36. For `C#CCOc1ccc(CCNC(=O)C(OCC#C)c2ccc(Cl)cc2)cc1OC` (stereo not drawn) the value was 3.16; for `CC(=O)Nc1ccccc1C(F)(F)F`, 1.14; for `CCc1cccc(C)c1N(C(=O)CCl)C(C)COC` (stereo not drawn), 3.01. For `CSc1nnc(C(C)(C)C)c(=O)n1N` the value was 1.61; for `COP(=S)(OC)SCN1C(=O)c2ccccc2C1=O`, 2.71; for `CCN(CC)C(=O)C(C)Oc1cccc2ccccc12` (stereo not drawn), 3.22. For `CC(C)N1C(=O)c2ccccc2NS1(=O)=O`, the logP amounted to 2.75. For `CCOC(=O)C1CC(=O)C(=C(O)C2CC2)C(=O)C1` (stereo not drawn) the value was 2.02; for `O=[N+]([O-])C=C1CCCN1Cc1ccc(Cl)nc1`, 0.7; for `CCNc1nc(Cl)nc(NC(C)C)n1`, 2.54. The same measure for `Cc1cc(C(F)(F)F)nn1CC(=O)N1CCC(c2nc(C3=NOC(c4c(F)cccc4F)C3)cs2)CC1` (stereo not drawn): 3.6; for `Cc1nc(N(C)C)nc(OC(=O)N(C)C)c1C`: 1.75. The same measure for `c1ccc2ccccc2c1`: 3.37; for `CC(C)N(Cc1ccccc1)C(=O)C(C)(C)C`: 2.98; for `CC(C)(C)C(=O)C(Oc1ccc(Cl)cc1)n1cncn1` (stereo not drawn): 3.11. `CCSC(=O)N(CC(C)C)CC(C)C` had a logP of 4.1.

Consider `c1ccc2[nH]ccc2c1`, for which the logP is 2.15. The same measure for `CCNc1nc(Cl)nc(NCC)n1`: 2.09; for `CNC(=O)Oc1ccccc1OC(C)C`: 1.55; for `CC(Oc1ccc(Oc2ccc(Cl)cc2Cl)cc1)C(=O)O` (stereo not drawn): 4.69.

In turn, `O=C(CCl)Nc1ccccc1` yielded a logP of 1.54.

For the compound `Cc1ccc(CO)cc1`, the logP was 1.62. The same measure for `Cc1cccc2sc3nncn3c12`: 1.42. For `CO/C=C(/C(=O)OC)c1ccccc1Oc1cc(Oc2ccccc2C#N)ncn1` the value was 2.53; for `Nc1ccc(Cl)c(Cl)c1`, 2.62. For `CC(C)CC(C)c1sccc1NC(=O)c1cn(C)nc1C(F)(F)F` (stereo not drawn) the value was 3.96.

For the compound `c1ccc(Sc2ccccc2)cc1`, the logP amounted to 4.43. For `Nc1cc(Cl)cc(Cl)c1` the value was 2.89; for `CS(=O)(=O)c1ccccc1`, 0.51; for `CC1(c2ccc(Oc3ccccc3)cc2)OC(=O)N(Nc2ccccc2)C1=O` (stereo not drawn), 4.78. The same measure for `CNC(=O)Nc1ccc(S(=O)(=O)NC(=O)c2ccccc2OC)cc1`: 1.95; for `CCCCn1nnc2ccccc21`: 2.52; for `CCON=C(CC)C1=C(O)CC(c2c(C)cc(C)cc2C)CC1=O` (stereo not drawn): 4.77.

`OC(Cn1cncn1)(c1ccc(F)cc1)c1ccccc1F` (stereo not drawn) yielded a logP of 2.26. The same measure for `C[C@@H](Oc1ccc(Oc2ccc(C#N)cc2F)cc1)C(=O)O`: 3.08.

Take `COc1nc(C)nc(NC(=O)NS(=O)(=O)c2ccccc2OCCCl)n1`: the logP turned out to be 1.72. `N#Cc1cc(Br)c(O)c(Br)c1` came in with a logP of 2.9.

Consider `CCCC1COC(Cn2cncn2)(c2ccc(Cl)cc2Cl)O1` (stereo not drawn), for which the logP amounted to 3.57. For `C#CC(C)(C)NC(=O)c1cc(Cl)cc(Cl)c1` the value was 3.23. For `COC(=O)NCc1cc(/C(C)=N/OCc2cccc(C)n2)ccc1Cl` the value was 3.64. The same measure for `COC(=O)C=Cc1ccccc1`: 2.67; for `CO/N=C(/C(=O)OC)c1ccccc1CO/N=C(\C)c1cccc(C(F)(F)F)c1`: 4.45. `C=CCN(CC=C)C(=O)C(Cl)Cl` had a logP of 1.77. In the case of `CS(=O)(=O)c1ccc(C(=O)C2C(=O)CCCC2=O)c(Cl)c1COCC(F)(F)F`, the logP stood at 2.15. The same measure for `CN(C)C(=O)Nc1ccc(Cl)c(Cl)c1`: 2.74. The same measure for `CC1(C)CCC(Cc2ccc(Cl)cc2)C1(O)Cn1cncn1` (stereo not drawn): 3.82; for `Cc1ccc(NC(=O)N(C)C)cc1Cl`: 2.43; for `O=C(O)COc1ccc(Cl)cc1Cl`: 2.66. The same measure for `Cn1cc(C(=O)Nc2cccc3c2[C@@H]2CC[C@H]3C2=C(Cl)Cl)c(C(F)F)n1`: 4.34; for `c1ccc(-c2ccc(C(c3ccccc3)n3ccnc3)cc2)cc1` (stereo not drawn): 5.12; for `COC(=O)C(C)Oc1ccc(Oc2ccc(Cl)cc2Cl)cc1` (stereo not drawn): 4.89. In turn, `Fc1ccc(Oc2ccnc3cc(Cl)cc(Cl)c23)cc1` yielded a logP of 5.27. For `CCCCCOC(=O)C(C)Oc1ccc(Oc2ccc(C(F)(F)F)cn2)cc1` (stereo not drawn) the value was 5.6; for `CCCC(=O)c1c(C)cc(C)c(C2CC(=O)C(/C(CC)=N/OCC)=C(O)C2)c1C` (stereo not drawn), 4.74.

The compound `CCOc1cc(Oc2ccc(C(F)(F)F)cc2Cl)ccc1[N+](=O)[O-]` came in with a logP of 5.19.

For the compound `O=[N+]([O-])c1ccc(Oc2ccccc2)cc1`, the logP is 3.66. For `CN(C)C(=O)Nc1cc(C(C)(C)C)on1` the value was 1.91.

As for `O=c1c2cc(F)ccc2nc(-n2cncn2)n1-c1ccc(Cl)cc1Cl`, the logP is 3.21. As to `O=C(NCCc1ncc(C(F)(F)F)cc1Cl)c1ccccc1C(F)(F)F`, the logP worked out at 3.26. As to `CC(C)N(C)S(=O)(=O)NC(=O)c1cc(-n2c(=O)cc(C(F)(F)F)n(C)c2=O)c(F)cc1Cl`, the logP amounted to 2.33.

On to `COC(=O)N(C(=O)N1CO[C@@]2(C(=O)OC)Cc3cc(Cl)ccc3C2=N1)c1ccc(OC(F)(F)F)cc1`, for which the logP is 4.75. The same measure for `COC(=O)c1cc(Oc2ccc(Cl)cc2Cl)ccc1[N+](=O)[O-]`: 4.53. The same measure for `c1ccc(-c2ccncn2)cc1`: 1.9; for `COc1nc(C)nc(NC(=O)NS(=O)(=O)c2ccccc2CCC(F)(F)F)n1`: 2.87. For `c1ccc(-c2ccccn2)nc1` the value was 1.72; for `CNC(=O)Nc1ccc(C(=O)O)cc1`, 1.16; for `CCCCOC(=O)C(C)Oc1ccc(Oc2ccc(C(F)(F)F)cn2)cc1` (stereo not drawn), 5.01. With `CCN1C(=O)C(=O)c2ccc(OC)cc2C1=O`, the logP came out at 1.4. The same measure for `CC1=C(C(=O)Nc2ccccc2)SCCO1`: 2.08; for `CC(C)(C)C(O)(CCc1ccc(Cl)cc1)Cn1cncn1` (stereo not drawn): 3.59. The same measure for `COCC(=O)N(c1c(C)cccc1C)C(C)C(=O)OC` (stereo not drawn): 1.6; for `CC(C)N1C(=O)N(c2ccccc2)CSC1=NC(C)(C)C`: 4.92. `CON(C(=O)c1cn(C)nc1C(F)F)C(C)Cc1c(Cl)cc(Cl)cc1Cl` (stereo not drawn) had a logP of 3.77.

For `Cc1cc(C2CC2)nc(Nc2ccccc2)n1`, the logP worked out at 3.91. The same measure for `N#Cc1c(Cl)c(Cl)c(Cl)c(C#N)c1Cl`: 2.93; for `CCCN(CCOc1c(Cl)cc(Cl)cc1Cl)C(=O)n1ccnc1`: 4.02; for `CCC(=O)c1ccccc1`: 2.16.

Take `N#Cc1cnc2ccccc2c1`: the logP amounted to 1.64. For `Nc1c(Cl)cccc1Cl` the value was 2.75.

For `Cc1cc(C)nc(Nc2ccccc2)n1`, the logP turned out to be 2.84. This logP and that of the compound before are within 0.2 log units of each other.
